In ChEMBL document CHEMBL1201862, “PubChem BioAssay data set” (2004):
The source made the active and inactive calls. Cut-off read from the data, not from the text of the source, for most assays here: actives have a measured IC50 and inactives only a lower limit.

How the values were obtained:
[1] = target: Alkaline phosphatase, placental type (Homo sapiens, UniProt P05187); assay: PLAP enzyme inhibitors, confirmation, biochemical, luminescence (AID 1512); type: functional
[2] = target: T1, Alkaline phosphatase, tissue-nonspecific isozyme (Homo sapiens, UniProt P05186); assay: human TNAP enzyme inhibitors, SAR follow-up, biochemical, luminescent, dose response (AID 1056)
T1 sequence (P05186 whole entry): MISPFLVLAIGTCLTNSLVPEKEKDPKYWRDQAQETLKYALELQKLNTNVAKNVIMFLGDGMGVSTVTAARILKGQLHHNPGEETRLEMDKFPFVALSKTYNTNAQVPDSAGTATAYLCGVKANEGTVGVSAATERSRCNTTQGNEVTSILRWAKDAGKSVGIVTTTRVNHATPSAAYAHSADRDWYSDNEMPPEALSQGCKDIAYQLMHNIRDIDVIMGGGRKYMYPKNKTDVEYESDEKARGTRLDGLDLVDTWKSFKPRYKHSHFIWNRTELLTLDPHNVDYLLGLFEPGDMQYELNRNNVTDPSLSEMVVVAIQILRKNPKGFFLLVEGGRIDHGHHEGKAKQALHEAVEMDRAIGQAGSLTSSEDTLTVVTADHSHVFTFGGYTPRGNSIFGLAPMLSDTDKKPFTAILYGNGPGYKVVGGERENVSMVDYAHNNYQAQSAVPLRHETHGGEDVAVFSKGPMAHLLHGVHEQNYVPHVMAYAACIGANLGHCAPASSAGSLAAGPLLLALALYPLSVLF

[3] = target: T2, Tyrosine-protein phosphatase non-receptor type 7 (Homo sapiens, UniProt P35236); type: functional
T2 sequence (P35236 whole entry): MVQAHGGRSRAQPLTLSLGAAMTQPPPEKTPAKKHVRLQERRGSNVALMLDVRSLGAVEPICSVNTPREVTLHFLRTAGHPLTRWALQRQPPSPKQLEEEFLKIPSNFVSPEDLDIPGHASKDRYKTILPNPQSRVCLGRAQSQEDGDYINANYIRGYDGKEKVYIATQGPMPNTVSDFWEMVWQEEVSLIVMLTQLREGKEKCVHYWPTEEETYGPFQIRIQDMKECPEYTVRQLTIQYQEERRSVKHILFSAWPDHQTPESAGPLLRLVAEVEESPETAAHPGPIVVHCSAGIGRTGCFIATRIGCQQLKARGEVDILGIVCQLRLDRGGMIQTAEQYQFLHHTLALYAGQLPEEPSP

[4] = target: T3, Tyrosine-protein phosphatase non-receptor type 22 (Homo sapiens, UniProt Q9Y2R2); type: functional
T3 sequence (Q9Y2R2 whole entry): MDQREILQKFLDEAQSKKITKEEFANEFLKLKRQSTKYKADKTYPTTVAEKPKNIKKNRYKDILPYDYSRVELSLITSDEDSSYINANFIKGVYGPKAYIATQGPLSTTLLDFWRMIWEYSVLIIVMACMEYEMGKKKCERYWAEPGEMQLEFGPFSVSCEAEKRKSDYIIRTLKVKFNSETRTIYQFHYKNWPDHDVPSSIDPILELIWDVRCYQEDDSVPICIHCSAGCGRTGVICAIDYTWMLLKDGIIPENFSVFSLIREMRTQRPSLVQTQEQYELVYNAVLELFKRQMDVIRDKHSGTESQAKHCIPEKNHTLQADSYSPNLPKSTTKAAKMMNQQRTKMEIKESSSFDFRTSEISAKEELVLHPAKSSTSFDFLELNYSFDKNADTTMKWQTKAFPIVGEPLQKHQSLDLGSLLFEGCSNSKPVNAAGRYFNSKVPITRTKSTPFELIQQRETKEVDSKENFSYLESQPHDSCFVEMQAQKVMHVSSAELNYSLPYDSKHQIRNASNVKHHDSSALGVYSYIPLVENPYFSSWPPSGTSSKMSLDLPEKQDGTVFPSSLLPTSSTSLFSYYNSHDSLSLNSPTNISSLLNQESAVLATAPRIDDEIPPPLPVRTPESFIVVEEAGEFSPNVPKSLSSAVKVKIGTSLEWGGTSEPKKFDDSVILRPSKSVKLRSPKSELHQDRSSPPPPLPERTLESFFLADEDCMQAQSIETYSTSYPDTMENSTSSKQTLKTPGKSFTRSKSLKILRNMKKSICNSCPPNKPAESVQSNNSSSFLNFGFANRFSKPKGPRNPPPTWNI

[5] = target: T3, Tyrosine-protein phosphatase non-receptor type 22; type: functional; remark: listed apart in the source
Hexokinase = Hexokinase (Trypanosoma brucei, UniProt Q38C41); assay: Confirmation assay for inhibitors of Trypanosoma brucei hexokinase 1-Analogue-first series. [Related pubchem assays (depositor defined):AID1430, AID1632, AID2516, AID2560, AID2579, AID2600, AID449725, AID492951]; type: functional
[6] = target: Glucose-6-phosphate 1-dehydrogenase (Homo sapiens, UniProt P11413); assay: human G6PD enzyme inhibitors, dose response, selectivity assay for P. falciparum G6PD inhibitor project, biochemical, fluorescence (AID 504792); type: functional
Phosphomannomutase 2 = target: T4, Phosphomannomutase 2 (Homo sapiens, UniProt O15305); assay: Counter screen SAR assay for PMM2 inhibitors via a fluorescence intensity assay. [Related pubchem assays (depositor defined):AID1545, AID1574]
T4 sequence (O15305 whole entry): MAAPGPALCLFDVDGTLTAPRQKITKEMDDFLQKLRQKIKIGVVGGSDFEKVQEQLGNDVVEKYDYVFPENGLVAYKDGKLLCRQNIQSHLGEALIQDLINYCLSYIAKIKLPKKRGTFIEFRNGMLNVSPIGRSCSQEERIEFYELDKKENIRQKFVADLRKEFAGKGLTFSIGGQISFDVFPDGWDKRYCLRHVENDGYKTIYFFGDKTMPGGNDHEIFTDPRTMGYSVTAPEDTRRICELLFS

[7] = HeLa cell cytotoxicity, dose response, cytotoxicity control for MgcRacGAP inhibitor project (AID 624300); type: functional
[8] = target: T5, Rac GTPase-activating protein 1 (Homo sapiens, UniProt Q9H0H5); assay: MgcRacGAP GTPase-activating activity inhibitors, confirmation, biochemical, ADP Hunter fluorescence, primary and confirmatory (AID 624330); type: functional
T5 sequence (Q9H0H5 whole entry): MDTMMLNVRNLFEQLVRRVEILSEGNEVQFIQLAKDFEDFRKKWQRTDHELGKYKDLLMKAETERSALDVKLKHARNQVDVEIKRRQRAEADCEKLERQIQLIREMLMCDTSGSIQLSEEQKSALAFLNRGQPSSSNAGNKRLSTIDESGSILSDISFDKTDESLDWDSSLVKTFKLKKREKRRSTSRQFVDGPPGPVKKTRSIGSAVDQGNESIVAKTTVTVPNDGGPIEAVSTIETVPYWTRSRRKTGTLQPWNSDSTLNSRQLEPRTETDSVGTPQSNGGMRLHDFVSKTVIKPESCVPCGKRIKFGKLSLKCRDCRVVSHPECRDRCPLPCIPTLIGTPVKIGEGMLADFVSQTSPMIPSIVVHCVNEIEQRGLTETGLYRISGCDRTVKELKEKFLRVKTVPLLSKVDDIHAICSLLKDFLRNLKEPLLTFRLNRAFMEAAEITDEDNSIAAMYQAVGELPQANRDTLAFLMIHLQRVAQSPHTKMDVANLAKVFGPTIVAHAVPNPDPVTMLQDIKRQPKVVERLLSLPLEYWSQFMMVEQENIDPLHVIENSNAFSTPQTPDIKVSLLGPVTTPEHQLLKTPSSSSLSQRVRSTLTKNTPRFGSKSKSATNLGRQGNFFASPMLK

Coagulation factor XII = Coagulation factor XII (Homo sapiens, UniProt P00748); type: functional;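 note: activated factor XIIa alpha cleaving a fluorogenic AMC peptide substrate; inhibitor potency from loss of enzyme activity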
Sequence of Coagulation factor XII (P00748 20-372 limits assumed): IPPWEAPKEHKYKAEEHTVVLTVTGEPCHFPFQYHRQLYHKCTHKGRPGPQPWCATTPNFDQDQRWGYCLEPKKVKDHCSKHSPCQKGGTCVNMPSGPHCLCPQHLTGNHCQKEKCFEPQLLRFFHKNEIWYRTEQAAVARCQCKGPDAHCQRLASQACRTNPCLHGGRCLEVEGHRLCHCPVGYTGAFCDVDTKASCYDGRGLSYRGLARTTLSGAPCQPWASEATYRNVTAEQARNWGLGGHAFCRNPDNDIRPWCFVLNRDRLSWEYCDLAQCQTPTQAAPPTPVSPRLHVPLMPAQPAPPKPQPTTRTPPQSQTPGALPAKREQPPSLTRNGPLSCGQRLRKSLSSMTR
Sequence of Coagulation factor XII (P00748 373-615 limits assumed): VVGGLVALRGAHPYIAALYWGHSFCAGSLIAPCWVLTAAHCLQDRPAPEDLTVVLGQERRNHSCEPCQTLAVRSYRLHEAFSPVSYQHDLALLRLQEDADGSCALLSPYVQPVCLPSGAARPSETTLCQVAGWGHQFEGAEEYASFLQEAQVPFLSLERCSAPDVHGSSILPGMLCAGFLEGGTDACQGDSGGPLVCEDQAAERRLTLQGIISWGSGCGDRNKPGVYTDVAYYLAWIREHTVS

Sequence of Alkaline phosphatase, placental type (P05187 whole entry): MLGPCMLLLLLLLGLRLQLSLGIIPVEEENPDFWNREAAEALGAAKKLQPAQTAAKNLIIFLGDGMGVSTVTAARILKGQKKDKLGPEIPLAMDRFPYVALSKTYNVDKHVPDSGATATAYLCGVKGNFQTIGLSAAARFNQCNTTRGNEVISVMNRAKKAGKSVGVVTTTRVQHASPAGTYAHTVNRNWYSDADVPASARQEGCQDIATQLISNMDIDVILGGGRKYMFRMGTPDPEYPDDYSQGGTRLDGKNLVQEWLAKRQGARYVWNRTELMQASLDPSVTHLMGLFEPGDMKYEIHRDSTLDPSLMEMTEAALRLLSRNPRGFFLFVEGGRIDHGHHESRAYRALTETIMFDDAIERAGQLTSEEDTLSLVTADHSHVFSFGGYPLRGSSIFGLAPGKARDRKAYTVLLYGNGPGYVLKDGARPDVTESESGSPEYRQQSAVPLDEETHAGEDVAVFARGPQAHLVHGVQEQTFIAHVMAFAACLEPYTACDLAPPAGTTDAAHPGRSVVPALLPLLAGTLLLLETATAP
Sequence of Hexokinase (Q38C41 whole entry): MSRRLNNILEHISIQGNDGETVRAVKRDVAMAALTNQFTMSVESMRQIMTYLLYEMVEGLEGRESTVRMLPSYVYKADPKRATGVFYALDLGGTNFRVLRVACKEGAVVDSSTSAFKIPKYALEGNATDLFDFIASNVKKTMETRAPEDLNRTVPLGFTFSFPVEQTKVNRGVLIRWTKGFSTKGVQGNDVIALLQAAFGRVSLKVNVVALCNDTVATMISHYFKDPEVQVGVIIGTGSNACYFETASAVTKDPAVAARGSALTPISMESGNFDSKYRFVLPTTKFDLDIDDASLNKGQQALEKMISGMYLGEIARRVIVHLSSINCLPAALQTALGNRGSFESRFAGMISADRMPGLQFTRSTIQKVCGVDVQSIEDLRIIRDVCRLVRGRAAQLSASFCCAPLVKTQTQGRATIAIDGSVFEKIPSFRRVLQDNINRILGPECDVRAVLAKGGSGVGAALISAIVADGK
Sequence of Glucose-6-phosphate 1-dehydrogenase (P11413 whole entry): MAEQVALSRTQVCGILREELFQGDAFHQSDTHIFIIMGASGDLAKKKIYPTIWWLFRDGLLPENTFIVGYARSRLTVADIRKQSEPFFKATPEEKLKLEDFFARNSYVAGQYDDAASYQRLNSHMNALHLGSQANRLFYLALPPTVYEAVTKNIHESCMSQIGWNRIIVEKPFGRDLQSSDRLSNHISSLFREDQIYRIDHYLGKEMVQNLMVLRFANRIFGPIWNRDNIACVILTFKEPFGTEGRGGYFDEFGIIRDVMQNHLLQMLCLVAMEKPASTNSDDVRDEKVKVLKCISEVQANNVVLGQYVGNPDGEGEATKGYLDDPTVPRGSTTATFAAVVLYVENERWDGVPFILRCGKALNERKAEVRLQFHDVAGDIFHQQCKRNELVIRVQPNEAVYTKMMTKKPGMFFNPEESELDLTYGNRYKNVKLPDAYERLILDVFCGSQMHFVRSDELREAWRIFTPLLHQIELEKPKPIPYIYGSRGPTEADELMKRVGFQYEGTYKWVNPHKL

Oc1ccc(C2=Nn3c(nnc3-c3ccccc3Cl)SC2)cc1O
IC50 [1]: 15 µM (active)
IC50 [2]: 4.02 µM (active)

CCNS(=O)(=O)c1cc(S(C)(=O)=O)ccc1Cl
IC50 [3]: > 79.4 µM (inactive)
IC50 [4]: > 79.4 µM (inactive)
IC50 [5]: > 79.4 µM (inactive)

O=c1c2ccccc2sn1-c1ccc(Cl)cc1
IC50 (Hexokinase): 1.1 µM (active)
IC50 [6]: 10.5 µM (active)
IC50 (Phosphomannomutase 2): 35.6 µM (active)
CC50 [7]: 100 µM (active)
IC50 [8]: 34.7 µM (active)

COc1cccc(NC(C(=O)Nc2cccc(C(C)=O)c2)c2ccccc2)c1 (stereo unspecified)
IC50 (Coagulation factor XII): > 50 µM (inactive)
